We go through one compound from patent publication US12661355B2, “Compounds and methods for inducing UCP1 expression” (The Regents of the University of California, priority 2020, dated 2026).

Assay [1] has as its target T1, cGMP-dependent kinase 1 (PKG-1) (Mus musculus, UniProt P0C605).
T1 construct: endogenous in cells; host or cells: immortalized mouse brown adipocytes
Put plainly: CETSA in brown adipocytes, PKG-1. The assay is classed as binding. As to conditions: 10 μM for 8 h. The method, then: CETSA assays were performed according to known methods. Briefly, differentiated brown adipocytes (one 10 cm dish per treatment) were treated with vehicle or compounds, trypsinized, counted, and re-suspended in approximately 450 μl PBS containing protease inhibitors (volumes were adjusted to have the same number of cells in each treatment). For each sample, 18 μl was distributed into each of 7 PCR tubes. Samples were heated using a thermocycler with a temperature gradient (iCycler, Biorad) for 3 min, followed by 3 min at room temperature, and then snap-frozen in liquid N2. After two freeze-thaw cycles, samples were centrifuged at 20,000 g for 15 min at 4° C., and the supernatants were transferred to another set of tubes. Proteins were analyzed by immunoblotting.
The potential interaction of Z160 with PKA subunits and AKAPs was assessed first by identifying which PKA subunits and AKAP isoforms are normally present in BAT. […] To perform the CETSA assays, cultured brown adipocytes were incubated with 10 μM Z160 for 8 h, after which the thermal shift was analyzed by Western blot.

In a further assay the test system is PKA. Put plainly: PKA activity ELISA, cell or tissue lysates treated 30 min. It is filed as biochemical, mouse. As to conditions: 30 min; for PKA activity: brown adipocyte lysate. The method, then: PKA kinase activity was measured with an ELISA that utilized a synthetic peptide as substrate for PKA and a polyclonal antibody that recognizes the phosphorylated form of the substrate (ab139435, Abcam). PKA activity was measured in lysates from cultured brown adipocytes, mouse BAT, or liver. Cells and tissues were lysed in 20 mM MOPS, 5 mM EGTA, 2 mM EDTA, and 0.1% Triton X-100 supplemented with protease and phosphatase inhibitor as described above. Protein concentration was determined by Bradford assay and 10 μg of cells, 0.25 μg of BAT extract, or 0.5 μg of liver extract were assessed for PKA activation according to the manufacturer's instruction, with minor changes. Briefly, vehicle or Z160 was incubated with brown adipocyte cells overnight or with protein lysates for 30 min, followed by one wash before the primary antibody, 60 min incubation with the primary antibody, 30 min incubation with the secondary antibody, and by 10 min washing. Absorbance was measured after the substrate was added for 20-60 min, depending the intensity of the signal.
For orientation: In an ELISA, binding on a coated surface is turned into a signal by an enzyme label.

Assay [2] concerns electron transport chain protein complexes. Put plainly: Western blot of electron transport chain protein complexes in isolated mitochondria. The assay is classed as cell-based, mouse. As to conditions: overnight 10 μM. As to the method:
(§1) Cells and tissues were lysed in 10 mM Tris pH 7.5, 10 mM NaCl, 1 mM EDTA and 0.5% Triton X-100, supplemented with complete mini EDTA-free protease (Roche Diagnostics) and phosphatase (Cocktail 2 and 3, Sigma) inhibitors, followed by 10 second sonication. For analysis of mitochondrial proteins, mitochondria were isolated from cells by dual centrifugation, as described. Protein lysates were separated by SDS-PAGE and transferred to a nitrocellulose membrane. Transfer was confirmed by Ponceau staining (P7170, Sigma). After blocking in 5% milk, 0.1% Tween-20 in Tris-buffered saline (TBS), primary antibody was incubated overnight at 4° C. in 5% bovine serum albumin and 0.1% Tween-20 in TBS. Primary antibodies against ACTB (GTX109639, GeneTex), AKAP1 (5203, Cell Signaling), AKAP6 (07-087, Millipore), Cytochrome c (136F3, Cell Signaling), electron transport chain protein complexes (Total OXPHOS rodent WB antibody cocktail ab110413, Abcam), GAPDH (GTX100118, Genetex), active p38 MAPK (V1211, Promega), total p38 MAPK (8690, Cell Signaling), PGC1α (AB3242, Millipore), phospho-(Ser/Thr) PKA substrate (9621, Cell Signaling), PKA C-α (4782, Cell Signaling), PKA RII-β (ab75993, Abcam), and UCP1 (662045, Calbiochem) were used at 1:2000. […] Quantification using representative bands from the Ponceau staining was performed with ImageJ.

The target of a further assay is T2, AKAP1 (Mus musculus, UniProt O08715).
T2 construct: from tissue; host or cells: mouse brown adipose tissue (BAT) lysate; also mouse brown adipocyte extracts
T2 sequence (O08715 30-857): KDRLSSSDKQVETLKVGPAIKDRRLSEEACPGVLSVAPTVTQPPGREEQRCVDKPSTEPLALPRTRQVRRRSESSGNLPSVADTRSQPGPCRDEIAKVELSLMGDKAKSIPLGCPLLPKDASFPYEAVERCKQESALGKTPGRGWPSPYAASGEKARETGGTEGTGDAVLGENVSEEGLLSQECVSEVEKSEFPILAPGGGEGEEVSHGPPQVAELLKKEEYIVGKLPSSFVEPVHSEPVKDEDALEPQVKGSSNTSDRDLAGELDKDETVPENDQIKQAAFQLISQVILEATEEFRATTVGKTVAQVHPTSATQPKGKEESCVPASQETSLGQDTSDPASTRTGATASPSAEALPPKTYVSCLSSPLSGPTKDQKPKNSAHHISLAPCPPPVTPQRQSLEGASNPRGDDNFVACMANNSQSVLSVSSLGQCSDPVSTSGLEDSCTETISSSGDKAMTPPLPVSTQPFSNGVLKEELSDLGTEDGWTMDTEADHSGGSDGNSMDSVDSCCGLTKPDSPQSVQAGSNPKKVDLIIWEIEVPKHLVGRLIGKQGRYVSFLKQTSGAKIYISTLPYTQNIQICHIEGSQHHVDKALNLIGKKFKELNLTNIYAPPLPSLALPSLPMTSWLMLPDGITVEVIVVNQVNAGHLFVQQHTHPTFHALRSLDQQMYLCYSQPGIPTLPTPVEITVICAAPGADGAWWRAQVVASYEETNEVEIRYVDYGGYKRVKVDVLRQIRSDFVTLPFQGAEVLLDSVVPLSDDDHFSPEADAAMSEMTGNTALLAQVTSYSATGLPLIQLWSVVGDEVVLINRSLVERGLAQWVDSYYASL
Put plainly: Western blot of mitochondria-associated proteins, AKAP1. The assay is classed as cell-based. As to conditions: brown adipocytes, 10 μM, after 6-8 h. As to the method:
as §1, with “ImageJ. […]” for “ImageJ.”
On the technique in general: Immunoblotting shows a protein as a band on a membrane.

T1 sequence (P0C605 whole entry): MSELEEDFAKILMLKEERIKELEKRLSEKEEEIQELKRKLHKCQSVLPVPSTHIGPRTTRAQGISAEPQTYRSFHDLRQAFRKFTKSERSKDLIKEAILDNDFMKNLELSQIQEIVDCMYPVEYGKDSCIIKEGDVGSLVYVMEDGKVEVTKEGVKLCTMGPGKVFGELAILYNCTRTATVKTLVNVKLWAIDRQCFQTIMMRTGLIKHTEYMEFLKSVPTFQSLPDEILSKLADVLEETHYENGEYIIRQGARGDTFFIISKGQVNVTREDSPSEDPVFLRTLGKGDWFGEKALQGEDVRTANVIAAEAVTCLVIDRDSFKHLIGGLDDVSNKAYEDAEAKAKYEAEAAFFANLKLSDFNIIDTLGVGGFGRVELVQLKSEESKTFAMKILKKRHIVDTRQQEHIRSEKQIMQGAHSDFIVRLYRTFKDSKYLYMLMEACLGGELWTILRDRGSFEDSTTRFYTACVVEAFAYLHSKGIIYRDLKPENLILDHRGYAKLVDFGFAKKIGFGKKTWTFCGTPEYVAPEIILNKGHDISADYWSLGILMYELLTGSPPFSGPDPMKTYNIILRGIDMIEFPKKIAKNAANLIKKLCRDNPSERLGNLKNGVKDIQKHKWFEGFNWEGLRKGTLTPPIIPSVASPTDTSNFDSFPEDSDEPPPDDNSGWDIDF

For `COc1ccc(NC(=O)CSc2nc3ccccc3c(=O)[nH]2)c(OC)c1` [Z160], in assay [1], the “heat stability of PKG-1” value is “did not influence the heat stability”. Also, the PKA activity result in the assay with PKA (25 μM) and in the assay on PKA (50 μM) was “significant increase” each time. Moreover, the PKA activation result is listed as “stimulated PKA activation” in the assay with PKA (mouse BAT extract, 25 μM) and “stimulated PKA activation” in the assay on PKA (mouse liver extract, 25 μM). Also, the “mitochondrial complex protein abundance” value in assay [2] is “slight enhancement”. Further, the “AKAP1 protein levels in the mitochondrial fraction” value at AKAP1 is given as “increased”.
